Source: patent US7101967B2, “Transport vectors” (priority 1998, dated 2006)
Square brackets hold non-standard residues; d marks the D form. Peptide text beside a SMILES is read from it. * marks the point of attachment. X3 = COc1cc([C@@H]2c3cc4c(cc3[C@@H](Nc3ccc(NC(=O)CCN5C(=O)CC(*)C5=O)cc3)[C@H]3COC(=O)[C@H]23)OCO4)cc(O)c1O; Biotin = O=C1N[C@H]2[C@H](CS[C@H]2CCCCC(=O)*)N1; βAla = NCCC(=O)O

system: HaCaT cells; assay: Peptide internalisation assay (biotinylated peptides, alkaline phosphatase-streptavidin detection); format: cell-based, human; conditions: FIG. 2, one peptide concentration, same pattern regardless of concentration
Procedure: HaCaT cells (immortalised ‘normal’ human […] cell line) were seeded into 96-well plates at 50,000 cells per well in medium (DMEM) with 10% foetal calf serum and antibiotics. After an overnight incubation, peptides were prepared as dilution series in cell medium and were added to the cells. At the end of the incubation period (usually 10 and 60 min), the cells were rinsed three times with PBS and fixed for 20 min at −20° C. in EtOH/AcOH (95:5). After the fixation, the cells were made permeable by treatment for 10 min with PBS containing 3% Tween-20. Endogenous alkaline phosphatase activity was neutralised by incubation at 65° C. for 60 min. Cells were incubated for 30 min at room temperature with alkaline phosphatase-streptavidin (Pierce Chemical Co., Rockford, Ill., USA) in 0.1% BSA in PBS and washed extensively with PBS. Freshly prepared substrate solution (1 mg/mL p-nitrophenyl phosphate disodium (Pierce Chemical Co.) in 10 mM diethanolamine (pH 9.5) containing 0.5 mM MgCl, was added to each well and incubated until sufficient colour had developed (approximately 30 min.). The enzymatic reaction was stopped by adding 50 μL 2 M aq NaOH to each well. Alkaline phosphatase activity was measured spectrophotometrically at 405 nm.

Which “degree of internalisation / membrane translocation relative to control peptide 1” value does the source give for “Biotinyl-βAla-Arg-Met-Lys-Trp-Lys-Lys-NH2 (Biotin-[βAla]RMKWKK-NH2; SMILES CSCC[C@H](NC(=O)[C@H](CCCNC(=N)N)NC(=O)CCNC(=O)CCCC[C@@H]1SC[C@@H]2NC(=O)N[C@@H]21)C(=O)N[C@@H](CCCCN)C(=O)N[C@@H](Cc1c[nH]c2ccccc12)C(=O)N[C@@H](CCCCN)C(=O)N[C@@H](CCCCN)C(N)=O) [Peptide 20]” here?
Its value is “severe drop”.

Which “degree of internalisation / membrane translocation relative to control peptide 1” value does the source give for “Biotinyl-βAla-Ile-Trp-Phe-Gln-Asn-Arg-Arg-Met-Lys-Trp-Lys-Lys-NH2 (Biotin-[βAla]IWFQNRRMKWKK-NH2; SMILES CC[C@H](C)[C@H](NC(=O)CCNC(=O)CCCC[C@@H]1SC[C@@H]2NC(=O)N[C@@H]21)C(=O)N[C@@H](Cc1c[nH]c2ccccc12)C(=O)N[C@@H](Cc1ccccc1)C(=O)N[C@@H](CCC(N)=O)C(=O)N[C@@H](CC(N)=O)C(=O)N[C@@H](CCCNC(=N)N)C(=O)N[C@@H](CCCNC(=N)N)C(=O)N[C@@H](CCSC)C(=O)N[C@@H](CCCCN)C(=O)N[C@@H](Cc1c[nH]c2ccccc12)C(=O)N[C@@H](CCCCN)C(=O)N[C@@H](CCCCN)C(N)=O) [Peptide 14]” here?
Its value is “only about half of the original signal was left”.

Which “degree of internalisation / membrane translocation relative to control peptide 1” value does the source give for “Biotinyl-βAla-Trp-Phe-Gln-Asn-Arg-Arg-Met-Lys-Trp-Lys-Lys-NH2 (Biotin-[βAla]WFQNRRMKWKK-NH2; SMILES CSCC[C@H](NC(=O)[C@H](CCCNC(=N)N)NC(=O)[C@H](CCCNC(=N)N)NC(=O)[C@H](CC(N)=O)NC(=O)[C@H](CCC(N)=O)NC(=O)[C@H](Cc1ccccc1)NC(=O)[C@H](Cc1c[nH]c2ccccc12)NC(=O)CCNC(=O)CCCC[C@@H]1SC[C@@H]2NC(=O)N[C@@H]21)C(=O)N[C@@H](CCCCN)C(=O)N[C@@H](Cc1c[nH]c2ccccc12)C(=O)N[C@@H](CCCCN)C(=O)N[C@@H](CCCCN)C(N)=O) [Peptide 15]” here?
Its value is “only about half of the original signal was left”.

same assay, conditions: assay of section 1.3

Which “internalised into cells / active in the cell internalisation assay (qualitative)” value (from here on “internalised into cells / active”) does the source give for KKWKORR here?
The value was “internalised into cells”.

With KRMKWKK as the compound, how does the “internalised into cells / active” value read?
Its value is “internalised into cells”.

Which “internalised into cells / active” value does the source give for NRRMKWKK here?
Its value is “internalised into cells”.

With QNRRMKWKK as the compound, how does the “internalised into cells / active” value read?
The value was “internalised into cells”.

For RKMKWKK, which “internalised into cells / active” value is on record?
The value was “internalised into cells”.

With RORKWKK as the compound, how does the “internalised into cells / active” value read?
The value was “internalised into cells”.

For RREKWKK, which “internalised into cells / active” value is on record?
Its value is “internalised into cells”.

Which “internalised into cells / active” value does the source give for RRMKKWK here?
Its value is “internalised into cells”.

For RRMKQKK, which “internalised into cells / active” value is on record?
The value was “internalised into cells”.

Which “internalised into cells / active” value does the source give for RRMKWFK here?
Its value is “internalised into cells”.

For RRMKWKK, which “internalised into cells / active” value is on record?
Its value is “internalised into cells”.

With RRMWKKK as the compound, how does the “internalised into cells / active” value read?
The value was “internalised into cells”.

With RROKKWK as the compound, how does the “internalised into cells / active” value read?
Its value is “internalised into cells”.

With RROKWKK [O = norleucine] as the compound, how does the “internalised into cells / active” value read?
Its value is “internalised into cells”.

With RROWKKK as the compound, how does the “internalised into cells / active” value read?
Its value is “internalised into cells”.

Which “internalised into cells / active” value does the source give for RRQKWKK here?
The value was “internalised into cells”.

system: live cells; assay: Visualisation of cell internalisation (biotin-avidin and direct fluorescein probe); format: cell-based; conditions: FIG. 4, visualisation in cells
Procedure: This assay permitted the study and measurement of cell internalisation without the possibility of observing artefacts emanating from the cell manipulations necessary with the biotinylated peptides. […] (squares when t=10 mins, diamonds when t=60 mins). […] Nuceolar accumulation may be due to non-specific binding of the positively charged peptide to DNA.

With “Biotinyl-βAla-Arg-Gln-Ile-Lys-Ile-Trp-Phe-Gln-Asn-Arg-Arg-Met-Lys-Trp-Lys-Lys-NH2 (ARQIKIWFQNRRMKWKK; N-terminal biotin, beta-residue; C-terminal amide; MOD_RES (1) bAla) [Peptide 1]” as the compound, how does the “subcellular localisation after internalisation” value read?
Its value is “localises predominantly to the cell nucleus and accumulates in the nucleoli, with lesser concentration in the cytosol”.

system: purified recombinant human topoisomerase II; assay: Topoisomerase II inhibition assay (cleavage and relaxation of plasmid DNA); format: biochemical; set-up: key: I denotes inhibition of relaxation of supercoiled plasmid by topoisomerase II; C denotes accumulation of topoisomerase II reaction intermediate; conditions: test compound at 1 mM, 100 μM, or 10 μM final concentration; cleavage and relaxation assays
Procedure: Topoisomerase II assay—Plasmid DNA (0.3 μg) was incubated at 37° C. with 4 units of purified recombinant human topoisomerase II in cleavage buffer (30 mM Tris.HCl, pH 7.6, 60 mM NaCl, 3 mM ATP, 15 mM mercaptoethanol, 8 mM MgCl2) with or without the addition of test compound (at 1 mM, 100 μM, or 10 μM final concentration). Reactions were stopped by the immediate addition of SDS (1% w/v final). Samples were treated with proteinase K (30 min at 37° C.) and extracted twice with an equal volume of 42:1 CHCl3/i-amyl alcohol. After adding loading dye samples were loaded to a 4×TAE, 1% agarose gel containing […] ethidium bromide and electrophoresed for 16-24 h. Topoisomerase II inhibition was judged by the production of linear plasmid DNA, representing trapped cleavage intermediate, and by the ratio of substrate (spercoiled DNA) to product (relaxed DNA). A relaxation assay was performed identically, except that the reaction buffer was optimised for the detection of catalysis rather than cleavage i.e. only 2 units of enzyme were used per sample. The reaction buffer was 50 mM Tris.HCl, pH 8, 120 mM KCl, 0.5 mM ATP, 0.5 mM dithiothreitol, 10 mM MgCl2. Topoisomerase II inhibition was judged by the ratio of substrate (supercoiled DNA) to product (relaxed DNA).

For COc1cc(C2c3cc4c(cc3C(Nc3ccc(N)cc3)C3COC(=O)C23)OCO4)cc(OC)c1O (centres unmarked) [4′-Demethyl-4-(4″-aminoanilino)epipodophyllotoxin, reference compound], which “Activity observed (topoisomerase II)” value is on record?
Its value is “I”.

Which “Activity observed (topoisomerase II)” value does the source give for COc1cc([C@@H]2c3cc4c(cc3[C@@H](Nc3ccc(NC(=O)CCN5C(=O)CC(SC[C@H](N)C(=O)NCCC(=O)N[C@@H](CCCNC(=N)N)C(=O)N[C@@H](CCCNC(=N)N)C(=O)N[C@@H](CCSC)C(=O)N[C@@H](CCCCN)C(=O)N[C@@H](Cc6c[nH]c7ccccc67)C(=O)N[C@@H](CCCCN)C(=O)N[C@@H](CCCCN)C(N)=O)C5=O)cc3)[C@H]3COC(=O)[C@H]23)OCO4)cc(O)c1O (stereo partly drawn) [4′-Demethyl-4-[4″-aminoanilino-(succinimidopropionoyl)-(H-Cys-βAla-Arg-Arg-Met-Lys-Trp-Lys-Lys-NH2)]epipodophyllotoxin] (H-C(X3)[βAla]RRMKWKK-NH2) here?
Its value is “I”.

system: not listed separately; assay: Maximum tolerated dose by iv administration in mice; conditions: mouse, in vivo

With CC[C@H](C)[C@H](NC(=O)[C@H](CCCCN)NC(=O)[C@@H](NC(=O)[C@H](CCC(N)=O)NC(=O)[C@H](CCCNC(=N)N)NC(=O)[C@@H](N)CSC1CC(=O)N(CCC(=O)O[C@H]2c3cc4c(cc3[C@@H](c3cc(OC)c(OC)c(OC)c3)[C@H]3C(=O)OC[C@@H]32)OCO4)C1=O)[C@@H](C)CC)C(=O)N[C@@H](Cc1c[nH]c2ccccc12)C(=O)N[C@@H](Cc1ccccc1)C(=O)N[C@@H](CCC(N)=O)C(=O)N[C@@H](CC(N)=O)C(=O)N[C@@H](CCCNC(=N)N)C(=O)N[C@@H](CCCNC(=N)N)C(=O)N[C@@H](CCSC)C(=O)N[C@@H](CCCCN)C(=O)N[C@@H](Cc1c[nH]c2ccccc12)C(=O)N[C@@H](CCCCN)C(=O)N[C@@H](CCCCN)C(=O)NCC(=O)N[C@@H](CS)C(=O)NCC(N)=O (some centres unmarked) [podophyllotoxin, 16-mer] as the compound, how does the MTD read?
Its MTD is about 40 mg/kg.
